{"source": "patent US20260193180A1", "about": "“AUTOPHAGY INDUCING COMPOUNDS AND USES THEREOF” (SAMSARA THERAPEUTICS INC., priority 2022, published 2026)", "key": {"[1]": {"test_system": "Prp-TDP43 mice", "test": "Mouse model of Amyotrophic Lateral Sclerosis (ALS)", "conditions": "30 mg/kg once per day, oral gavage; for increase in mean CAMP amplitude compared to the vehicle controlled group: sciatic nerve"}, "[2]": {"test_system": "C57BL/6JRj mice injured by intra-nigral injections of alpha-synuclein and CBE", "test": "Mouse model of Parkinson's disease (intra-nigral alpha-synuclein protofibrils plus CBE)", "type": "in vivo", "conditions": "30 mg/kg per os once a day", "text": "This model (run by Neuro-Sys SAS, France) uses C57BL/6JRj mice injured by intra-nigral injections of a solution containing protofibrils of alpha-synuclein (α-syn, precisely quantified by automatic Western Blot) and combined with pharmacological inhibition of GBA by conduritol B epoxide (CBE), in aged mice. The model mimics the main pathologies of PD: loss of dopaminergic neurons in the substantia nigra, neuroinflammation, deficits in motor coordination and synucleinopathy (α-syn aggregation). Any substance with positive effects in this model may be useful as a new therapeutic agent for the treatment or prevention of PD.\n• Type of animal: C57BL/6JRj (Male) • Age: 18 months old • Supplier: Janvier Labs • Animal number: 10 mice per group • Acclimation and clinical signs: Animals arrived on site 7 days (one week) before the experiment to allow optimal acclimation.\nOverview: CBE was administered along with the test compounds, starting on the day of the stereotaxic injections of the α-syn oligomer preparation.\nTest compounds at specific concentrations (see below) were administered per os (gavage or drinking water). • Test compound treatment: The test compounds were solubilized (vehicle=water), aliquoted and stored at −20° C. Aliquots were thawed overnight at 4° C. and given once a day. Treatment started on the day of the stereotaxic injections of α-syn preparation (Day 0). Treatment was administrated until the last day of the experiment (Day 28; =day of dissection). • CBE dose and administration: 50 mg/kg, Intraperitoneal (i.p.), twice a day. • CBE treatment: Administration of CBE (vehicle=saline [NaCl 0.9%] started on the day of the stereotaxic injections of α-syn preparation (Day 0). Treatment was administrated until the last day of the experiment (Day 28; =day of dissection), • Untreated control: vehicle (saline; i.p.) administered twice a day, • Stereotaxic injections of α-syn oligomers: Human α-syn peptide (stock at 69 μM in water at −20° C.) was reconstituted at 50 μM in NaCl, 0.9% (final concentration). All mice in compound treated groups were subjected to surgery and received 2.5 μL of α-syn solution. Mice were anesthetized by isoflurane (4%, for induction), in an induction chamber coupled with a vaporizer and to an oxygen concentrator. Mice were placed on the stereotaxic frame. Anesthesia was maintained by isoflurane (2%) with a face mask coupled to the isoflurane vaporizer and oxygen concentrator machine. The skull was exposed and holes were drilled. The α-syn preparation was bilaterally injected into the SNpc, at the following coordinates: A-P, −0.3 mm; M-L, +0.12 mm; D-V, −0.45 mm. Depth of anesthesia and rectal temperature were verified every 5 minutes. After surgery, mice were allowed to recover before being placed back in the cage.\n• i) Body mass • ii) Assessment of motor coordination: bar test and grid walking test • iii) Dopaminergic Tyrosine hydroxylase (TH)-positive neuron survival in the substantia nigra pars compacta (SNpc), i.e. a measure of the number of TH neurons in the SNpc • iv) α-syn area in TH positive neurons (a measure of the degree of aggregation of α-syn in TH positive neurons, in the SNpc)\n• Overall: For overall evaluation and body mass, mice were observed daily, and body mass was monitored prior to drug administration. • Assessment of motor coordination: bar test.\nIn the third week (Week 3) post-surgery, motor coordination of the mice was assessed with the bar test. The principle of the test is based on the capacity of the mice to cross a horizontal bar connected to a platform (18 mm of diameter, 60 cm long). The test requires good coordination between front and hindlimbs, and good balance. Mice are placed at one extremity of the bar and need to reach a platform located at the other side of the bar. Motor coordination was studied after two training sessions, one and two days before the test. Three sessions were recorded by a video camera system. […]"}}, "data": [{"smiles": "CCOc1ccc(Cl)cc1CN1CC[C@@H](CN)C1.Cl", "note": "[Compound 12, (S)-(1-(5-chloro-2-ethoxybenzyl)pyrrolidin-3-yl)methanamine hydrochloride]", "values": [{"measurement": "body weight compared to the vehicle group", "setting": "[1]", "value": "increase"}, {"measurement": "mortality", "setting": "[1]; 60 days", "value": "No mortality was observed"}, {"measurement": "pathological clinical signs", "setting": "[1]; 60 days", "value": "No pathological clinical sign was observed"}, {"measurement": "decrease in mean NfL concentration (plasma) compared to the vehicle controlled group", "setting": "[1]; at three months of age", "value": 54, "unit": "%"}, {"measurement": "increase in mean NCV (nerve conduction velocity) compared to the vehicle controlled group", "setting": "[1]; at three months of age", "value": 139, "unit": "%"}, {"measurement": "increase in mean rotarod latency compared to the vehicle controlled group", "setting": "[1]; at three months of age", "value": 99, "unit": "%"}, {"measurement": "increase in mean CAMP amplitude compared to the vehicle controlled group", "setting": "[1]; at three months of age", "value": 73, "unit": "%"}, {"measurement": "decrease in mean NfL concentration (plasma) compared to the vehicle controlled group", "setting": "[1]; at two months of age", "value": 48, "unit": "%"}, {"measurement": "increase in mean rotarod latency compared to the vehicle controlled group", "setting": "[1]; at two months of age", "value": 76, "unit": "%"}, {"measurement": "increase in mean CAMP amplitude compared to the vehicle controlled group", "setting": "[1]; at two months of age", "value": 39, "unit": "%"}, {"measurement": "bar test: decrease in the mean time required to cross the bar compared to the α-syn/CBE injured group", "setting": "[2]; week 3", "value": 21, "unit": "%"}, {"measurement": "bar test: reduction in the mean number of steps required to cross the bar compared to the α-syn/CBE injured group", "setting": "[2]; week 3", "value": 2, "unit": "%"}, {"measurement": "bar test: reduction in the number of misplaced steps (failed strides) compared to the α-syn/CBE injured group", "setting": "[2]; week 3", "value": 33, "unit": "%"}, {"measurement": "decrease in the aggregation of α-syn in TH neurons (α-syn area) compared to the α-syn/CBE injured group", "setting": "[2]; week 4", "value": 10, "unit": "%"}, {"measurement": "grid walking test: increase in the total distance travelled during the test", "setting": "[2]; week 4", "value": 12, "unit": "%"}, {"measurement": "grid walking test: reduction in the mean number of failures per meter (number of missed steps)", "setting": "[2]; week 4", "value": 21, "unit": "%"}, {"measurement": "increase in the number of dopaminergic TH positive neurons in the SNpc compared to the α-syn/CBE injured group", "setting": "[2]; week 4", "value": 36, "unit": "%"}]}]}
